Source: ChEMBL document CHEMBL4483862, “Open-source discovery of chemical leads for next-generation chemoprotective antimalarials” (2018)

Tested on: Plasmodium berghei
Test: Luciferase/luciferin-expressing antifolate-resistant parasites were used to infect a culture of HepG2 cells that were pre-incubated with compounds. Infected hepatocytes emit light due to the luciferase reaction. Assay results are presented as the percent inhibition of light emission compared to control. […]
Type: functional
Conditions: sporozoite; for IC90: read-out: LUCIFERASE INFECTION ASSAY - IC90
[1] = read-out: LUCIFERASE INFECTION ASSAY - IC50

Compound | IC50 [1] [µM] | IC90 [µM] | further results
COc1cccc(-c2cn3c(-c4ccc(CO)cc4)cnc3cn2)c1F | 8.82 | > 9.45 | 
CN1c2ccccc2C(C)(C)C12C=Cc1c(ccc3oc4c(c13)CCCC4)O2 (stereo not drawn) |  | > 10 | IC50 (PBLUC_HILL_SLOPE 2.26, PBLUC_R_SQUARED 0.401, read-out: LUCIFERASE INFECTION ASSAY - IC50): 8.28 µM
O=c1c(-c2ccc([N+](=O)[O-])cc2)c(-c2ccc(Cl)cc2)cc2[nH]c3ccccc3n12 | > 10 | > 10 | 
Cc1ccccc1-c1cn2c(-c3cccc(C(=O)N4CCN(C)CC4)c3)cnc2cn1 |  | > 8.02 | IC50 (PBLUC_HILL_SLOPE 1.06, PBLUC_R_SQUARED 0.743, read-out: LUCIFERASE INFECTION ASSAY - IC50): 3.76 µM
Cc1c(C)n(CCCN(C)C)c2ncn3nc(-c4ccc(N(C)C)cc4)nc3c12 |  | > 8.43 | IC50 (PBLUC_HILL_SLOPE 1.37, PBLUC_R_SQUARED 0.575, read-out: LUCIFERASE INFECTION ASSAY - IC50): 3.73 µM
O=C(CSc1nnc(-c2c[nH]c3ccccc23)n1C1CC1)Nc1ccccc1N1CCCC1 |  | > 10 | IC50 (HEPG2TOX_HILL_SLOPE 1.91, HEPG2TOX_R_SQUARED 0.598, PBLUC_HILL_SLOPE 0.845, PBLUC_R_SQUARED 0.661, read-out: LUCIFERASE INFECTION ASSAY - IC50): 3.63 µM
O=C(Nc1nc2ccccc2[nH]1)c1ccc(-c2ccc(F)cc2)s1 |  | 5.74 | IC50 (PBLUC_HILL_SLOPE 3.71, PBLUC_R_SQUARED 0.757, read-out: LUCIFERASE INFECTION ASSAY - IC50): 3.18 µM
CN(C)c1ccc(-c2cc3c(cn2)nc(Nc2ccccc2)n3C)cc1 |  | 4.23 | IC50 (HEPG2TOX_HILL_SLOPE 15.7, HEPG2TOX_R_SQUARED 0.892, PBLUC_HILL_SLOPE 14.7, PBLUC_R_SQUARED 0.425, read-out: LUCIFERASE INFECTION ASSAY - IC50): 3.64 µM
N#CC(C#N)=C/C=C(/Sc1ccc(F)c(Cl)c1)c1ccc(Cl)cc1 |  | 7.65 | IC50 (FFLUC_HILL_SLOPE 3.34, FFLUC_R_SQUARED 0.746, HEPG2TOX_HILL_SLOPE 5.06, HEPG2TOX_R_SQUARED 0.992, PBLUC_HILL_SLOPE 1.74, PBLUC_R_SQUARED 0.619, read-out: LUCIFERASE INFECTION ASSAY - IC50): 2.17 µM
O=c1c(Cl)c(NCC(c2ccco2)N2CCCCC2)cnn1-c1nc2ccccc2[nH]1 (stereo not drawn) |  | > 10 | IC50 (PBLUC_HILL_SLOPE 10.1, PBLUC_R_SQUARED 0.23, read-out: LUCIFERASE INFECTION ASSAY - IC50): 8.87 µM
CC(C)(C)c1csc(-c2ccc(-n3cncn3)nc2)n1 |  | > 11.6 | IC50 (HEPG2TOX_HILL_SLOPE 9.36, HEPG2TOX_R_SQUARED 0.478, read-out: LUCIFERASE INFECTION ASSAY - IC50): > 11.6 µM
COc1ccc(OC)c(CCNc2nc3cnc(-c4ccc(Cl)cc4)cc3n2C)c1 |  | 3.74 | IC50 (HEPG2TOX_HILL_SLOPE 1.93, HEPG2TOX_R_SQUARED 0.878, PBLUC_HILL_SLOPE 2.27, PBLUC_R_SQUARED 0.668, read-out: LUCIFERASE INFECTION ASSAY - IC50): 1.42 µM
COc1ccc(NS(=O)(=O)c2cc(NCc3ccccc3C)cc(C(=O)NCCN(C)C)c2)cc1 |  | > 6.64 | IC50 (HEPG2TOX_HILL_SLOPE 13.2, HEPG2TOX_R_SQUARED 0.729, PBLUC_HILL_SLOPE 3.39, PBLUC_R_SQUARED 0.479, read-out: LUCIFERASE INFECTION ASSAY - IC50): 4.55 µM
Cc1ccc(NC(=O)C(OC(=O)c2c(C)noc2C)c2ccccc2)cc1Cl (stereo not drawn) | > 10 | > 10 | 
COc1cc2c(cc1OC)C(c1cccs1)N(CC(=O)Nc1ccccc1C(F)(F)F)CC2 (stereo not drawn) |  | > 10 | IC50 (FFLUC_HILL_SLOPE 19.7, FFLUC_R_SQUARED 0.151, HEPG2TOX_HILL_SLOPE 1.77, HEPG2TOX_R_SQUARED 0.955, PBLUC_HILL_SLOPE 2.27, PBLUC_R_SQUARED 0.356, read-out: LUCIFERASE INFECTION ASSAY - IC50): 5.2 µM
N#Cc1sc(SCc2ccccc2)c2c1CC(c1ccccc1)CC2=O (stereo not drawn) |  | > 8.79 | IC50 (HEPG2TOX_HILL_SLOPE 1.94, HEPG2TOX_R_SQUARED 0.866, PBLUC_HILL_SLOPE 1.6, PBLUC_R_SQUARED 0.401, read-out: LUCIFERASE INFECTION ASSAY - IC50): 7.45 µM
CCOC(=O)CCCNC(=O)COC(=O)c1cc(-c2ccco2)nc2ccccc12 | > 10 | > 10 | 
CSc1sc(C(N)=S)c(C)c1C(C)=O | > 13.4 | > 13.4 | 
N#C/C(=N\Nc1ccc(OC(F)(F)F)cc1)C(=O)c1ccsc1 |  | 6.42 | IC50 (HEPG2TOX_HILL_SLOPE 1.43, HEPG2TOX_R_SQUARED 0.957, PBLUC_HILL_SLOPE 2.41, PBLUC_R_SQUARED 0.455, read-out: LUCIFERASE INFECTION ASSAY - IC50): 2.58 µM
CN1/C(=C\C=N\NC(=O)c2ccccc2NS(=O)(=O)c2cccs2)C(C)(C)c2ccccc21 |  | 1.2 | IC50 (HEPG2TOX_HILL_SLOPE 16.9, HEPG2TOX_R_SQUARED 0.641, PBLUC_HILL_SLOPE 12.4, PBLUC_R_SQUARED 0.659, read-out: LUCIFERASE INFECTION ASSAY - IC50): 1.01 µM
COc1ccc(/C=C2\c3ccccc3Cn3c2nc(=O)c2c4c(sc23)CCCC4)cc1 |  | 8.28 | IC50 (PBLUC_HILL_SLOPE 2.2, PBLUC_R_SQUARED 0.219, read-out: LUCIFERASE INFECTION ASSAY - IC50): 3.06 µM
Cc1ccc(C2=NNC(=NC3CC3)SC2)cc1 | 1.46 | > 10 | 

Compound | IC50 [1] [µM] | IC90 [µM] | further results
Cc1ccc(-c2nnc3c(C(F)(F)F)nc4ccccc4n23)cc1 |  | > 10.1 | IC50 (HEPG2TOX_HILL_SLOPE 6.88, HEPG2TOX_R_SQUARED 0.907, PBLUC_HILL_SLOPE 7.21, PBLUC_R_SQUARED 0.0351, read-out: LUCIFERASE INFECTION ASSAY - IC50): 8.59 µM
c1ccc2c(C3=NN=C(NC4CCCCC4)SC3)c[nH]c2c1 | > 10 | > 10 | 
Cc1cc(C(=O)CSC2=NCCS2)c(C)n1-c1ccc(F)cc1 |  | > 10 | IC50 (PBLUC_HILL_SLOPE 0.709, PBLUC_R_SQUARED 0.459, read-out: LUCIFERASE INFECTION ASSAY - IC50): 2.87 µM
Cc1ccc2nc(NC(=O)c3cccc(C(F)(F)F)c3)c(C(=O)NC3CCCCC3)n2c1 |  | 0.579 | IC50 (FFLUC_HILL_SLOPE 2.54, FFLUC_R_SQUARED 0.701, HEPG2TOX_HILL_SLOPE 1.03, HEPG2TOX_R_SQUARED 0.261, PBLUC_HILL_SLOPE 2.67, PBLUC_R_SQUARED 0.838, read-out: LUCIFERASE INFECTION ASSAY - IC50): 0.254 µM
O=C(Nc1ccc(Cl)cc1)OCc1nccn1Cc1ccc(Cl)cc1 |  | > 8.77 | IC50 (PBLUC_HILL_SLOPE 0.184, PBLUC_R_SQUARED 0.0602, read-out: LUCIFERASE INFECTION ASSAY - IC50): > 8.77 µM
COc1ccc2nc3[nH]nc(N)c3cc2c1 | > 10 | > 10 | 
CC(=O)Nc1ccccc1OCC(=O)NC(=O)NC(C)C1CC2CCC1C2 (stereo not drawn) | 5.71 | > 10 | 
O=C(OCc1cccc2ccccc12)C1(c2ccccc2)CCN(S(=O)(=O)c2ccccc2)CC1 | 4.79 | > 10 | 
CCCCCCC(/C=N/NC(=O)c1ccccc1O)=C\c1ccccc1 | > 10 | > 10 | 
CCOc1ccc(NC(=O)c2ccc(NC(=O)CSc3nncs3)cc2)cc1 | > 10 | > 10 | 
CC(C)(C)C1CCc2[nH]c(=O)sc2C1 (stereo not drawn) |  | 1.31 | IC50 (HEPG2TOX_HILL_SLOPE 1.45, HEPG2TOX_R_SQUARED 0.907, PBLUC_HILL_SLOPE 17.6, PBLUC_R_SQUARED 0.512, read-out: LUCIFERASE INFECTION ASSAY - IC50): 1.16 µM
CO/N=C1\CC(C)(C)Cc2c(-c3ccn(S(=O)(=O)c4ccccc4Cl)n3)sc(SC)c21 | > 6.65 | > 6.65 | 
O=C1N=C(NC2CCCC2)S/C1=C\c1ccc(Cl)cc1 | > 10 | > 10 | 
CC(C)n1ncc2c(C(=O)N3CCN(CC(=O)N4CCCC4)CC3)cc(-c3ccccc3)nc21 |  | 5.42 | IC50 (PBLUC_HILL_SLOPE 8.22, PBLUC_R_SQUARED 0.426, read-out: LUCIFERASE INFECTION ASSAY - IC50): 4.15 µM
Cc1nccc(-c2cccc(N/N=C(\C#N)S(=O)(=O)c3ccccn3)c2)n1 |  | 8.23 | IC50 (HEPG2TOX_HILL_SLOPE 1.84, HEPG2TOX_R_SQUARED 0.959, PBLUC_HILL_SLOPE 1.78, PBLUC_R_SQUARED 0.641, read-out: LUCIFERASE INFECTION ASSAY - IC50): 2.4 µM
N#CCCN(Cc1ccco1)C(=O)CSc1nc2ccccc2c(=O)n1-c1cccc(Cl)c1 | 7.35 | > 10 | 
CCCCCCCCC/C(=N\O)c1ccccn1 |  | 11.9 | IC50 (HEPG2TOX_HILL_SLOPE 8.74, HEPG2TOX_R_SQUARED 0.63, PBLUC_HILL_SLOPE 40.5, PBLUC_R_SQUARED 0.34, read-out: LUCIFERASE INFECTION ASSAY - IC50): 11.3 µM
CCOC(=O)c1ccc(N2CCN(C(C)c3nc(C(C)C)no3)CC2)nc1 (stereo not drawn) |  | > 10 | IC50 (HEPG2TOX_HILL_SLOPE 2.09, HEPG2TOX_R_SQUARED 0.987, PBLUC_HILL_SLOPE 1.97, PBLUC_R_SQUARED 0.365, read-out: LUCIFERASE INFECTION ASSAY - IC50): 4.25 µM
O=C(NCCc1cccs1)N1CCc2nc(NCc3cccc(Oc4ccccc4)c3)ncc2C1 | > 6.8 | > 6.8 | 
CCCN(CCC)C(=S)NC(=O)c1cccc([N+](=O)[O-])c1 |  | > 10.7 | IC50 (PBLUC_HILL_SLOPE 0.519, PBLUC_R_SQUARED 0.204, read-out: LUCIFERASE INFECTION ASSAY - IC50): > 10.7 µM
COc1ccc(C(NCc2cccc3ccccc23)C2CC2)cc1 (stereo not drawn) | > 10 | > 10 | 
Cc1cc(C)n2nc(SCC(=O)c3c(-c4ccccc4)[nH]c4ccccc34)nc2n1 |  | 5.12 | IC50 (PBLUC_HILL_SLOPE 3.17, 7.12, PBLUC_R_SQUARED 0.979, 0.666, read-out: LUCIFERASE INFECTION ASSAY - IC50): 4.67 µM
